“Also recorded” adds a separate entry of the source.
What was measured:
[1] = test system: NPC (C17/NPC43+ve) cells, C17 spheroid; experiment: 3D tumor spheroid apoptosis imaging (CellEvent Caspase-3/7); assay type: cell-based
Experimental: (§1) For the generation of tumor spheroids in 3D, 200 μL/well of cell suspension in culture medium was seeded at cell densities of 20,000 cells/well. NPC (C17/NPC43+ve) cells were dispensed into Nunclon Sphera 96 wells plate (Thermo Fisher Scientific). The Nunclon Sphera surface was designed to cause minimal cell attachment with minimal extracellular matrix protein binding to the plate surfaces. Plates were incubated at 37° C. and 5% CO2 in RPMI supplemented with FBS and ROCK inhibitor.
To mimic in vivo conditions, the cytotoxicity of idronoxil on NPC cells using three-dimensional (3D) tumor cultures was examined. The effect of increasing concentrations of idronoxil was monitored on apoptosis using fluorescent probes (non-toxic CellEvent Caspase-3/7 Green and LysoTracker Deep Red) in combination with bright-field microscopy to perform persistent real-time spheroid imaging. […] When LysoTracker was added to the spheroids, the staining pattern was complementary to that of CellEvent, with the LysoTracker constantly accumulating in the outer and presumably metabolically active layers of the spheroids.

[2] = test system: NPC cell line spheroids cocultured with PBMCs; experiment: Coculture of NPC tumor spheroids and PBMCs: PBMC infiltration; assay type: cell-based
Experimental: as §1
(§2) For flow cytometry analyses, 8 wells/condition were seeded. OUT and IN compartments were isolated by first pooling the 8 cocultures wells in eppendorf tubes. Spheroids were gently resuspended and left to sediment to the bottom of the tubes. Supernatant cell suspension constituted the non-infiltrating immune cells (=OUT). These steps were repeated twice with Phosphate Buffer Saline (PBS) in order to separate the spheroids from the non-infiltrating immune cells. Spheroids were then trypsinized to obtain a single cell suspension (=IN) and further analyzed by flow cytometry.
(§3) The interactions between tumor spheroids and PBMCs through heterotypic cocultures was explored. Spheroids were generated from an NPC cell line cocultured with PBMCs obtained from healthy donors that were HLA-matched whenever possible. After coculture, lymphocyte tumor infiltration and tumor cell apoptosis were measured. The cellular compositions within infiltrated tumor spheroids by mechanically separating infiltrating cells (IN) and cells remaining in the medium (OUT) were studied. A description of the coculture experimental protocol is illustrated in FIG. 1.
An increase in PBMCs infiltration in the tumor spheroids upon treatment was detected as early as 2 hours after the beginning of the experiment, while the number of infiltrated cells remained constant in the controls (DMSO) over 72 hours of coculture. […] Moreover, the CellEvent staining was performed on the coculture to confirm the induction of apoptosis and observed that spheroid infiltration was proportional to an active apoptosis process in tumor cells. […]

NPC cell lines = experiment: In vitro exposure of NPC cell lines: T-cell chemokine expression; assay type: cell-based
[3] = test system: T cells infiltrating C17/NPC43+ve spheroids; experiment: Flow cytometry of spheroid-infiltrating T cells (IN/OUT) in NPC spheroid/PBMC coculture; assay type: cell-based
Experimental: as §2
Differences in quantitative variables were analyzed by the Mann-Whitney U test when comparing 2 groups. A p value<0.05 was considered as statistically significant.
as §3
These findings support the use of idronoxil to induce immunomodulatory responses, and in combination with conventional chemotherapies, enhance antitumor immunity. […] Finally, additionally to the above findings the inventors detected a significant reduction in PD1^+ expression in total infiltrating memory cells compared to DMSO controls (mean 48.57±5.117 vs. mean 62.06±3.066; p=0.0086; FIG. 3). In contrast, significant up-regulation in PD1^+ expression in naïve infiltrated cells upon idronoxil treatment as compared to DMSO (mean 62.10±7.049 vs. mean 43.57±3.870; p=0.0017) was found.

[4] = test system: MCF-7 mammary carcinoma spheroids with PBMCs; experiment: MCF-7 spheroid PBMC co-culture: microscopy and FACS; assay type: cell-based, human
Experimental: (§4) Spheroids were generated using the liquid overlay technique. Therefore, a 96 well cell culture plate (Greiner) was precoated with 1.5% (w/v) agarose. For this, 0.75 g of agarose was diluted in 50 ml PBS and boiled for 15 min in a pressure cooker at full pressure, followed by another 10 min at lowest pressure level. 50 μl of agarose solution was added to each well of the 96 well plate and allowed to cool down at RT (under a cell culture hood). Tumor cells were trypsinized and adjusted to a cell suspension of 25.000 cells/ml in medium (RPMI 1640, 10% FCS, 1% penicillin/streptomycin). The outer wells of the 96 well plates were filled with PBS, and the remaining wells were filled with 200 μl cell suspension. Cell aggregation was triggered by centrifugation of the plate at 500× g, 5 min, RT. Plates were then maintained for 5 days in an incubator (37° C., humidified atmosphere). Medium was changed every two days by careful aspiration. Spheroid size was acquired with a Carl Zeiss Axiovert microscope and diameters were determined using AxioVision 40 software.
(§5) PBMCs were isolated from buffy coats (DRK-Blutspendedients Baden-Würtemberg-Hessen, Institut für Transfusionsmedizin and Immunhämatologie, Frankfurt am Main, Germany) using Bicoll-Hypaque gradients. Two 50 ml Leukosep® tubes (Greiner) per buffy coat were filled with 15 ml lymphocyte separation medium (Sigma Aldrich) and centrifuged at 1000×g, 1 min, RT, to place the solution below the membrane. Afterwards 30 ml human blood from buffy coats was added, tubes were filled up to 50 ml with PBS/2 mM EDTA solution, and centrifuged at 500×g, 45 min, RT without break. After density gradient centrifugation, the intermediate white layer composed of mononuclear cells was transferred into a fresh sterile 50 ml tube and washed twice with PBS/2 mM EDTA. After RBC lysis (RBC lysis buffer: 135 mM NH4Cl, 10 mM NaHCO3, 0.1 mM EDTA; for 4 min at RT, stop with PBS) cells were diluted in RPMI 1640 medium (+10% FCS, 1% penicillin/streptomycin) at 2×10^6 cells/ml.
(§6) PBMCs were activated with 25 μl/ml CD3/CD28 T cell activator cocktail (StemCell Technologies), and 50.000 pre-activated PBMCs/well were added to spheroids. Afterwards, co-cultures were stimulated with 1 μM or 10 μM idronoxil or DMSO for 3 days. After three days, samples were either harvested for downstream analysis or treated again with 1 μM or 10 μM idronoxil or DMSO±10 μg/ml anti-PD-1 antibody (BioXCell) or the isotype control for another 3 days. Spheroid size was acquired with a Carl Zeiss Axiovert microscope and diameters were determined using AxioVision 40 software. Spheroids were harvested by transferring 5 spheroids of each group into FACS tubes (BD Biosciences), followed by centrifugation (500× g, 5 min, 4° C.). After removing the supernatant, 100 μl Accutase (Sigma Aldrich) was added to the spheroids, followed by 15 min incubation at 37° C. and generation of single cell suspensions by shearing the cell suspension repeatedly trough pipetting using 100 μl filter pipette tips. After centrifugation (500×g, 5 min, 4° C.) and removal of supernatant, cells were blocked with 80 μl of 0.5% BSA/PBS and 2 μl FcR-blocking reagent (Miltenyi Biotec) for 15 min on ice. Thereafter, cells were stained with an antibody mix consisting of anti-human CD4 PE-CF594, anti-human CD8 APC-H7, anti-human TCRab FITC, anti-human CD33 BV510, anti-human CD45 AF700, anti-human CD279 APC, and anti-human CD274 BV421 (each from BD Biosciences) antibodies for 20 min on nice in the dark. After washing with 500 μl FACS Flow (BD Biosciences), cells were resuspended in 300 μl FACS Flow, 20 μL absolute count standard (Bangs Laboratory) were added to each sample, and samples were acquired using an LSR II/Fortessa flow cytometer (BD Biosciences). All Antibodies were previously titrated to determine optimal concentrations. Antibody-capturing CompBeads (BD Biosciences) were used to create the multi-color panel compensation matrix. […]

[5] = test system: A549 lung adenocarcinoma spheroids with PBMCs; experiment: A549 spheroid PBMC co-culture: microscopy and FACS; assay type: cell-based, human
Experimental: as §4, §5, §6

[6] = Clinical examples: plasma concentration after daily dosing; assay type: in vivo, human; details: 800 mg daily dosage for a period of 7 days
Experimental: An individual presents with metastatic castration resistant prostate cancer. […] The individual has not been prior treated with an […]. The individual is given 800 mg daily dosage of idronoxil for a period of 7 days to establish a plasma concentration of 350 ng/mL of idronoxil. The individual is then administered with an anti-PD-1 antibody according to the product information. The dosage cycle is repeated twice and the individual is assessed for response to anti PD-1 therapy.
An individual presents with advanced melanoma, having been assessed at 12 weeks from first administration of an anti-CTLA-4 antibody as having stable disease and not having achieved a partial response. The individual is given 800 mg daily dosage of idronoxil for a period of 7 days to establish a plasma concentration of 350 ng/mL of idronoxil. The individual is then administered with an anti-CTLA-4 antibody according to the product information. The dosage cycle is repeated twice and the individual is assessed for response to anti-CTLA-4 therapy.

## Oc1ccc(C2=Cc3ccc(O)cc3OC2)cc1 [idronoxil, 2H-1-Benzopyran-7-0,1,3-(4-hydroxyphenyl)]
[1]; 3D vs 2D
  IC50 values, spheroid-derived cells in 3D versus 2D conditions: comparable
[1]; C17 spheroids, 3D culture, apoptosis by CellEvent Caspase-3/7, read-out: IC50 (3D CellEvent dose-response curve)
  IC50: 2.1 µM
[1]; increasing concentrations of idronoxil
  intensity of C17 spheroid staining with CellEvent: proportional to idronoxil concentrations
[2]; after the beginning of the experiment
  time at which increase in PBMCs infiltration was detected: 2 h
[2]; neutralizing antibodies added to tumor spheroid cultures
  idronoxil-induced PBMC migration upon blockade of CXCL10: significantly reduced
[2]; vs DMSO control, up to 72 hours of coculture
  influx of PBMC into the spheroids: significantly increased
NPC cell lines
  expression of T-cell chemokines: expression of the T-cell chemokines CXCL8, 9 and 10
[3]; CD3+ populations IN vs OUT, 72 hours
  double-positive (DP) T cells in the tumor structure: significant increase
[3]; DMSO control 43.57±3.870, p=0.0017
  PD1+ expression in naïve infiltrated cells (mean): 62.10±7.049
[3]; DMSO control 62.06±3.066, p=0.0086
  PD1+ expression in total infiltrating memory cells (mean): 48.57±5.117
[3]; compared to control
  proportions of CD45RO+ CD27+ memory cells among infiltrating DP T cells: decreased proportions
  proportions of CD45RO- CD27+ naïve cells among infiltrating DP T cells: increased proportions
[3]; compared to control, CCR7 not reduced
  CD62L expression of tumor-infiltrating DP T cells: pronounced reduction
[4]; 10 μM, day 3, FACS
  expression of PD1 on CD4+ T cells: reduces
  expression of PDL1 on myeloid cells: reduces
  number of myeloid cells: reduces
[4]; 10 μM, day 6
  3D spheroid size: reduced
  immune function of the cells (cluster formation): maintained
[4]; 10 μM, day 6, FACS
  number of tumor cells: reduces
[4]; day 3
  3D spheroid size: reduced
  immune activation (cluster formation): induced or maintained
[4]; day 6, especially at 10 μM, FACS
  expression of PD1 on both CD4+ and CD8+ T cells: reduces
[4]; day 6, idronoxil in general, FACS
  PDL1 expression by myeloid cells: strongly reduces
[5]; 1 μM, day 6
  3D spheroid size: reduced
[5]; 10 μM, day 3
  3D spheroid size: reduces
  immune activation (cluster formation): induces or maintains
[5]; 10 μM, day 3, FACS
  expression of PD1 on CD8+ T cells: reduced
  expression of PDL1 on myeloid cells: reduced
[5]; 10 μM, day 6
  immune activation (cluster formation): maintains
  invasion of the cells (into agarose): reduced; also recorded: prevents
  spheroid size: reduced
[5]; 10 μM, day 6, FACS
  expression of PD1 on both CD4+ and CD8+ T cells: reduces
  expression of PDL1 on myeloid cells: reduces
  immune cell infiltrates: increased
[6]
  plasma concentration of idronoxil: 350 ng/mL

From patent US20210275493A1, “IMMUNO-ONCOLOGY THERAPY USING ISOFLAVONE COMPOUNDS” (NOXOPHARM LIMITED, priority 2019, published 2021)
